Assay results as given in patent US12441775B2, “BCL-W polypeptides and mimetics for treating or preventing chemotherapy-induced peripheral neuropathy and hearing loss” (Dana-Farber Cancer Institute, Inc., priority 2016, dated 2025).

B1: Bclw: Recombinant His-tagged Bclw protein (R&D Systems) introduced by protein transfection (protein, UniProt Q92843 2-193, looked up)
Bcl-2-like protein 2: ATPASAPDTRALVADFVGYKLRQKGYVCGAGPGEGPAADPLHQAMRAAGDEFETRFRRTFSDLAAQLHVTPGSAQQRFTQVSDELFQGGPNWGRLVAFFVFGAALCAESVNKEMEPLVGQVQEWMVAYLETQLADWIHSSGGWAEFTALYGDGALEEARRLREGNWASVRTVLTGAVALGALVTVGAFFASK
modifications: His tag
notes: Recombinant His-tagged Bclw protein (R&D Systems) introduced by protein transfection

System: axons of E15 DRG sensory neurons
Test: Axonal degeneration assay in compartmented chamber cultures (degeneration index)
Assay type: cell-based, rat
Procedure: Cell culture. Compartmented chamber (Campenot) cultures were prepared as described (see, e.g., Fenstermacher et al., Springer Protocols: Neuromethods, 103:105-124 (2015)), with modifications. Briefly, DRGs from embryonic day 15 (E15) rats of either sex were dissected and trypsinized. DRGs (1.2×10^5 cells) were plated in the center compartment of a Teflon divider (Camp10, Tyler Research; Campenot, 1982) affixed to a p35 culture dish coated with growth factor reduced Matrigel basement membrane (BD Biosciences) 1:45 in DMEM. Cultures were maintained in media consisting of Neurobasal (Invitrogen) with 2% B27 supplement (Invitrogen), 1% penicillin-streptomycin, 1% GlutaMAX (Life Technologies), 0.08% glucose, and 0.3 μM cytosine arabinoside (AraC) at 37° C., 7.5% CO2; BDNF+NGF (PeproTech) were added to the cell body compartment at a concentration of 10 ng/ml and to the axon compartment at a concentration of 100 ng/ml for 2d. On day 3, media was replaced and the AraC was omitted. On day 5, neurotrophins were removed from the cell body compartment and reduced to 1 ng/ml in the axon compartments for 3-5 days. […] For calpain inhibition experiments, 20 μM calpain inhibitor III (VWR) and paclitaxel were added simultaneously to distal axon compartment.
Axonal degeneration assay. Compartmented chamber cultures were fixed at room temperature with 4% PFA diluted 1:2 in media for 10 min, then undiluted 4% PFA for an additional 20 min. Cultures were permeabilized with 0.1% TritonX-100 for 10 min, blocked in 3% BSA and 0.1% Triton X-100 for 1 hour at room temperature, and incubated with mouse anti-Tuj1 (1:400; clone Tuj1; Covance) overnight at 4° C. Cultures were then incubated with goat anti-mouse AlexaFluor (1:1000; Invitrogen) for 1 hour at room temperature and counterstained with DAPI. Images of distal axon tips were obtained using a 40× air objective, and axonal degeneration was quantified as a degeneration index, as previously described (Cosker et al., Neuroscience, 33:5195-5207 (2013)). Apoptosis analysis was carried out on the same cultures by taking images in the cell body compartment and counting total and condensed nuclei in NIH ImageJ software by an observer blind to condition.
Protein and peptide introduction. Recombinant His-tagged Bclw, Bcl2, and BclxL proteins (R&D Systems) or control β-galactosidase protein were introduced into cell bodies or axons of compartmented chamber cultures as described (e.g., Cosker et al., Nature Neuroscience, 19:690-696 (2016)). Briefly, 1 μg/μ1 protein was introduced into cultures using 2 μl Chariot reagent (Active Motif). To confirm expression of His-tagged proteins, cell bodies and axons were lysed in nonionic detergent, and protein lysates were separated as above and blotted with the following antibodies: anti-His (1:1000; Novagen) and anti-pan-actin (1:1000; Cell Signaling Technology). FITC-tagged SAHB peptides (BH4-Bclw, BH4-Bcl2, and BH4-BclxL; stock solutions 1 mM in DMSO) were introduced into cell bodies or axons using 350 ng peptide and 2 μl of Chariot reagent diluted 1:10 in water. Control was no peptide with 2 μl of 1:10 diluted Chariot. To confirm peptide expression, cultures were processed for axonal degeneration assay as above, and FITC immunofluorescence was examined with a 40× air objective. Paclitaxel was added to cultures 1 hour after protein or peptide transfection.

[1] = His-tagged recombinant protein transfected into axons
[2] = protein introduced into cell bodies instead of axons

Row | Molecule | effect on paclitaxel-induced axon degeneration [1] | effect on paclitaxel-induced axon degeneration [2] | effect on paclitaxel-induced axon degeneration (20 μM to axons, added with paclitaxel)
1 | Bcl2: Recombinant His-tagged Bcl2 protein (R&D Systems) introduced by protein transfection | neither BclxL nor Bcl2 prevented degeneration | failed to inhibit paclitaxel-induced degeneration | 
2 | BclxL: Recombinant His-tagged BclxL protein (R&D Systems) introduced by protein transfection | neither BclxL nor Bcl2 prevented degeneration | failed to inhibit paclitaxel-induced degeneration | 
3 | calpain inhibitor III |  |  | prevented paclitaxel-induced degeneration
4 | B1 | completely prevented paclitaxel-induced axon degeneration | failed to inhibit paclitaxel-induced degeneration | 
